Data set [1] addresses pp 28-luciferase expressing CMV (Towne). Kind of data set: microbe, parasite or virus in culture. It is filed as cell-based, human CMV. The conditions noted are these: for inhibition of CMV replication: different batches and passages of HFF, and HEL cells. The text has this:
A recombinant virus expressing luciferase reporter gene under the control of UL99 (pp 28) late promoter was generated by insertion of the reporter gene between the US9 and US10 ORFs in the Towne genome. […] Ahn J H, Hayward G S. Disruption of PML-associated nuclear bodies by IE1 correlates with efficient early stages of viral gene expression and DNA replication in human cytomegalovirus infection. Virology. 2000; 274:39-55.
(§1) Towne-GFP, Towne-luciferase, and SB viruses were used in these assays. HFF or HEL were grown to subconfluent monolayers and infected with the CMV viruses at MOI 0.1 to 3. […] J Mol Med. 2002; 80:233-242. The concentration of each compound was calculated and adjusted by volume such that it was constant throughout the experiment. Following 90 minute incubation, media was replaced with fresh media containing the drug used. Infected and treated cells were incubated at 37° C. in a 5% CO2 atmosphere for 3-10 days depending on the virus and the anti-viral assay. The recombinant luciferase-expressing virus was incubated for 72 hours, the GFP virus was incubated for 5 days, and the clinical isolate for 10 days. All experiments were subsequently repeated with compounds added to wells just after viral inoculation.

The subject of data set [2] is Human Foreskin Fibroblasts (HFF).
Method: (§2) Cellular cytotoxicity was determined using CellTiter-Glo® Luminescent Cell Viability Assay (Promega, Madison, Wis.). The assay determines the number of viable cells in culture based on quantification of the ATP present.
(§3) For EC50 and CC50 reported values represent the mean and SD of data derived from at least five independent experiments performed in triplicates.
The subject of data set [3] is GFP-tagged CMV (Towne-GFP). Kind of data set: GFP-tagged CMV replication in pretreated HFF. The conditions noted are these: pretreatment of HFF with different concentrations; data not shown. It is filed as cell-based, human CMV. The method, then:
The CMV strains used for infections were the highly-passaged Towne virus, and a clinical isolate obtained from the urine of a neonate with congenital CMV infection (SB) and passaged once in tissue culture. […] Initial experiments were performed using a recombinant human CMV-green fluorescent protein (GFP) virus, derived from Towne strain. […] J Virol.
as §1

The test system of data set [4] is CMV IE1 protein expression. The data set can be described thus: Western blot for CMV immediate early protein IE1 (and GFP). It counts as cell-based, human CMV. Set-up: expression of IE1 and GFP: dose or concentration left out as unconfirmed. The conditions noted are these: for expression of IE1 and GFP: Towne-GFP, artemisinin; for IE1 expression: clinical isolate SB, MOI=1. The method, then:
Monoclonal antibodies to CMV immediate early proteins IE-1 and IE-2 (MAb810) and to cellular β-actin were purchased from Millipore (Billerica, Mass.). Confluent cells were infected with CMV in the presence of artemisinin compounds. At the indicated times cells were harvested in sample buffer (RIPA buffer, Tris 50 mM, Nacl 150 mM, SDS 0.1%, Na Deoxycholate 0.5%, NP40 1%, and protease inhibitor cocktail), boiled and loaded onto SDS-PAGE. Proteins were separated by electrophoresis and transferred to nitrocellulose membrane. After blocking, blots were probed with primary antibody (1:3,000) overnight at 4° C. in phosphate-buffered saline, and Tween. After washing 3 times, blots were probed with HRP-conjugated anti-mouse (Sigma), 1:5,000 for 1 hour at room temperature. Blots were washed three times in phosphate-buffered saline/Tween, and then developed by enhanced chemiluminescence according to manufacturer protocol.
The expression of CMV immediate early (IE) protein was tested by western blot to determine whether artemisinins' inhibition of CMV replication occurs early in the virus life cycle. […] Further evidence for the early effect of artemisinins on IE1 protein expression was obtained with the clinical isolate (SB, FIG. 5b). […] Stinski M F. Sequence of protein synthesis in cells infected by human cytomegalovirus: early and late virus-induced polypeptides. J Virol. 1978; 26:686-701.

Data set [5] concerns Human Foreskin Fibroblasts (HFF). Kind of data set: Cellular cytotoxicity, CellTiter-Glo Luminescent Cell Viability Assay. The conditions noted are these: drug concentration that leads to 50% cellular cytotoxicity; mean and SD, at least five experiments in triplicates.
Method: as §2, §3
Another data set has as its system CMV clinical isolates. The conditions noted are these: 11.1 μM; cited from earlier work.
Data set [6] concerns Toxoplasmosis (Toxoplasma gondii). The data set can be described thus: Anti-toxoplasmosis activity of supernatants of CMV infected cells. It is filed as cell-based. The conditions noted are these: supernatants of CMV infected cells at 3-5 days post infection. The method, then:
To confirm that the difference in anti-CMV activity between monomers and dimers was not a result of instability of the monomers in tissue culture, the anti-toxoplasmosis activity of these compounds was determined in the supernatants of CMV infected cells at 3-5 days post infection. […] Antimicrob Agents Chemother. 2006; 50:4206-4208.

Data set [7] concerns recombinant luciferase-expressing CMV. Kind of data set: Plaque reduction assay in human embryonic lung cells (HEL). The conditions noted are these: 10 μM, luciferase virus. It is filed as cell-based, human CMV. (Plaque reduction counts the foci of infection that form in a cell layer.)
Method: For plaque reduction assay, human embryonic lung cells were seeded into six-well plates and incubated at 37° C. one day prior to infection with the recombinant luciferase-expressing CMV. […] The virus was diluted to a desired concentration which gave 50-60 plaques per well. Medium was aspirated from the wells, and 0.2 ml of virus suspension was added to each well in triplicates. Plates were incubated for 90 minutes with shaking every 10 min, thereafter drugs were added and a methylcellulose overlay applied to each well. After incubation for 10 days, cells were stained with crystal violet. The stain was aspirated, wells were washed with phosphate-buffered saline, and plaques were counted.

Where two headings read alike, the source gives them in different places.

Usually EC50 stands for the concentration that produces a half-maximal response.

Consider `C[C@H]1[C@@H](CCC(=O)Nc2ccc(F)cc2)O[C@@H]2OC3(C)CC[C@H]4[C@H](C)CC[C@@H]1[C@@]24OO3` [Artefanilide (3), Artefanilide], for which the EC50 in data set [1] (Table 1, 50% virus inhibition, mean and SD, at least five experiments in triplicates, read-out: EC50) was 8.1 ± 2.2 µM. The CC50 in data set [2] worked out at 44.9 ± 3.4 µM.

As for `C[C@@H]1CC[C@H]2[C@@H](C)C(=O)O[C@@H]3O[C@@]4(C)CC[C@@H]1[C@]32OO4` [Artemisinin (1), Artemisinin], in data set [3], the CMV replication entry is “dose-dependent reduction”. Moreover, the “expression of IE1 and GFP” value in data set [4] (MOI of 0.1) is reported as “undetectable”; in data set [4] (MOI of 0.5) it was “decreased”.

`C[C@H]1[C@H](OC(=O)CCC(=O)O)O[C@@H]2O[C@@]3(C)CC[C@H]4[C@H](C)CC[C@@H]1[C@@]24OO3` [Artesunate (2d), Artesunate]: in data set [1] (Human betaherpesvirus 5), the response was half-maximal at 18.5 ± 5.2 µM (EC50). The CC50 in data set [5] was 77.5 ± 14.4 µM. For the same molecule, the “in-vitro inhibition of clinical isolates” value in the data set with CMV clinical isolates is reported as 50-80%.

As for `C[C@H]1[C@@H](CC(COP(=O)(Oc2ccccc2)Oc2ccccc2)C[C@H]2O[C@@H]3O[C@@]4(C)CC[C@H]5[C@H](C)CC[C@@H]([C@H]2C)[C@@]35OO4)O[C@@H]2O[C@@]3(C)CC[C@H]4[C@H](C)CC[C@@H]1[C@@]24OO3` (stereo partly drawn) [Dimer isobu-OP(O)(OPh)2], the “rank as CMV inhibitor among eight representative dimers” value in data set [1] (FIGS. 7 and 8) is listed as “most potent”. Moreover, the selectivity index in data set [1] (eight representative dimers, FIGS. 7 and 8) is above 1000.

Regarding `C[C@H]1[C@@H](CC(CO)C[C@H]2O[C@@H]3O[C@@]4(C)CC[C@H]5[C@H](C)CC[C@@H]([C@H]2C)[C@@]35OO4)O[C@@H]2O[C@@]3(C)CC[C@H]4[C@H](C)CC[C@@H]1[C@@]24OO3` (stereo partly drawn) [Dimer primary alcohol (4)], the “inhibition of CMV replication” value in data set [1] is “dramatic inhibition”. This molecule displayed an EC50 in data set [6] of 0.4 ± 0.15 µM. Also, the “time post infection at which inhibition of IE1 expression was observed (as early as)” value in data set [4] (SB, MOI=3, prior to onset of DNA replication) worked out at 12 h. Also, the IE1 expression result in data set [4] (1-μM, 24 and 48 hr) is reported as “significantly reduced”.

With `C[C@H]1[C@@H](CC(C[C@H]2O[C@@H]3O[C@@]4(C)CC[C@H]5[C@H](C)CC[C@@H]([C@H]2C)[C@@]35OO4)CS(=O)(=O)c2ccc(COC(=O)N(C)C)cc2)O[C@@H]2O[C@@]3(C)CC[C@H]4[C@H](C)CC[C@@H]1[C@@]24OO3` (stereo partly drawn) [Dimer sulfone carbamate (6)], the “inhibition of CMV replication” value in data set [1] is reported as “dramatic inhibition”.

On to `Nc1nc(O)c2ncn(COC(CO)CO)c2n1` [GCV, Ganciclovir], for which the “CMV inhibition compared with the four monomers” value in data set [1] (10 μM, FIG. 2) was “more potent”. Moreover, the “reduction in plaque formation” value in data set [7] is 80%. In data set [4] (10 μM), the IE1 expression entry was “not affected”.

The record behind these values is US8883765B2, “Anti-cytomegalovirus activity of artemisinin-derived dimers” (The John Hopkins University, priority 2009, dated 2014).
